This note sets out measurements from ChEMBL document CHEMBL5136981, “Medicinal chemistry updates of novel HDACs inhibitors (2020 to present)” (Eur J Med Chem, 2022).

Assay [1] concerns the target T1, Protein deacetylase HDAC6 (Homo sapiens, UniProt Q9UBN7).
T1 sequence (Q9UBN7 whole entry): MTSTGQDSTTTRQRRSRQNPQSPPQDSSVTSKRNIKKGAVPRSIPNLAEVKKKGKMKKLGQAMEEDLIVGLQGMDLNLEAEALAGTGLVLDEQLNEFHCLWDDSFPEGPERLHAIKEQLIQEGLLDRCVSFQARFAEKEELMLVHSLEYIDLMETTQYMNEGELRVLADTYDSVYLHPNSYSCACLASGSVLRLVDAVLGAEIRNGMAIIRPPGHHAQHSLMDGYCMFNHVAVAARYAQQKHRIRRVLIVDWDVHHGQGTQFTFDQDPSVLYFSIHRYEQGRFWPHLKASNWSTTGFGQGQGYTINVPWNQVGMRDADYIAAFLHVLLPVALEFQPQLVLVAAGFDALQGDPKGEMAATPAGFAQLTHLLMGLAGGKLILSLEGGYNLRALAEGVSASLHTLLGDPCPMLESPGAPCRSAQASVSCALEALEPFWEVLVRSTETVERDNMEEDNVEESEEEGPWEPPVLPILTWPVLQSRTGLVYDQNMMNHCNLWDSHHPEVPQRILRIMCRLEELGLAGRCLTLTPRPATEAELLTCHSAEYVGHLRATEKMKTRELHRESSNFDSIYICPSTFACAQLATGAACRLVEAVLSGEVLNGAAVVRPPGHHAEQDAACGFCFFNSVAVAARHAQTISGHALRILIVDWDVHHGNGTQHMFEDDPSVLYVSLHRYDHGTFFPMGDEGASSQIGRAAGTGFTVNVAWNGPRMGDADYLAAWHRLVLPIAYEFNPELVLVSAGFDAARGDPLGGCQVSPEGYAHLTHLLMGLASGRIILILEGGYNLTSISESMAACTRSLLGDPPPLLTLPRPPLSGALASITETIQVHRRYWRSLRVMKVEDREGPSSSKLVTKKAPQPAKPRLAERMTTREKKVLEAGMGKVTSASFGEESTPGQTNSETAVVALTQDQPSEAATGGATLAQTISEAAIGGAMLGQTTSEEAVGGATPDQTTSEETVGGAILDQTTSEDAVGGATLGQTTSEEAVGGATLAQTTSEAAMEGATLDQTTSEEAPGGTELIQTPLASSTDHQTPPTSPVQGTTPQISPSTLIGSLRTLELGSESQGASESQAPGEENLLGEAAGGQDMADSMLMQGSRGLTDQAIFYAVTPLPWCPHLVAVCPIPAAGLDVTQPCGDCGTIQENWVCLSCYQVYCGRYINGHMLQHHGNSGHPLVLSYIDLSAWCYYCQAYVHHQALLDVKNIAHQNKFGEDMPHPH
The assay is described as follows: Inhibition of HDAC6 (unknown origin) incubated for 30 mins by fluorescence based assay.

The target of assay [2] is T2, Histone deacetylase 1 (Homo sapiens, UniProt Q13547). As to the kind of experiment: Inhibition of HDAC1 (unknown origin) incubated for 30 mins by fluorescence based assay.
The nature of assay [3]: Inhibition of recombinant human HDAC3/NCOR1 using fluorescent deacetylated substrate incubated for 15 mins by fluorescence based assay.
The target of another assay is Histone deacetylase 2 (Homo sapiens, UniProt Q92769). As to the kind of experiment: Inhibition of recombinant human HDAC2 using fluorescent green substrate incubated for 30 mins by fluorescence based assay.
The target of assay [4] is T2, Histone deacetylase 1. The assay is described as follows: Inhibition of recombinant human HDAC1 using fluorescent deacetylated substrate incubated for 15 mins by fluorescence based assay.
The target of assay [5] is T3, von Hippel-Lindau disease tumor suppressor/Histone deacetylase 1 (Homo sapiens, UniProt P40337+Q13547). The assay is described as follows: PROTAC activity at VHL/LSD1/HDAC1/CoREST complex interaction (unknown origin) assessed as induction of HDAC1 degradation using Boc-(Ac)Lys-AMC as substrate incubated for 20 mins by fluorescence based assay.
Assay [6] concerns the target T4, von Hippel-Lindau disease tumor suppressor/Histone deacetylase 3 (Homo sapiens, UniProt O15379+P40337). The assay is described as follows: PROTAC activity at VHL/HDAC3 in human HCT-116 cells assessed as induction of HDAC1 degradation at 1 uM incubated for 24 hrs by Western blot analysis relative to control. Type of assay: cell-based. (A western blot detects proteins with antibodies after separation by electrophoresis.)
Target sequence in this assay (O15379 whole entry, looked up): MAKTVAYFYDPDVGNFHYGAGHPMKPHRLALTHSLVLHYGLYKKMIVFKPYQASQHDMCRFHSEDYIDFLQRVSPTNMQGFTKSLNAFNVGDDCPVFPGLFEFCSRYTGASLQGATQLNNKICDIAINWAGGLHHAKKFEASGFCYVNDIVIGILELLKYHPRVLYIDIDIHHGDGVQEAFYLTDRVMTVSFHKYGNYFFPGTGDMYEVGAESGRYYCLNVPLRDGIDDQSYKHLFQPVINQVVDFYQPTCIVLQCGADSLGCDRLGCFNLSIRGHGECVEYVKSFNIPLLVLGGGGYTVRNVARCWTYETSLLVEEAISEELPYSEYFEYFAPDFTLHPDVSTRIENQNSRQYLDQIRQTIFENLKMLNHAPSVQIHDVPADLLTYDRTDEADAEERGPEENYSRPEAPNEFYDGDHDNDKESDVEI
Target sequence in this assay (P40337 whole entry, looked up): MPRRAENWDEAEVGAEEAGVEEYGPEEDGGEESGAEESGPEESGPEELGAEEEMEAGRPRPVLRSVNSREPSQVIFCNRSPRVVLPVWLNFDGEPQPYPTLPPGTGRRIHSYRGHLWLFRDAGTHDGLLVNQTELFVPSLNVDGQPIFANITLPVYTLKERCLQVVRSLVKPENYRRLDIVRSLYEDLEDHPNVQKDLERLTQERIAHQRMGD

The target of assay [7] is von Hippel-Lindau disease tumor suppressor/Histone deacetylase 2 (Homo sapiens) (UniProt Q92769+P40337). As to the kind of experiment: PROTAC activity at VHL/HDAC2 in human HCT-116 cells assessed as induction of HDAC1 degradation at 1 uM incubated for 24 hrs by Western blot analysis relative to control. Type of assay: cell-based.
The target in assay [8] is von Hippel-Lindau disease tumor suppressor/Histone deacetylase 1 (Homo sapiens) (UniProt Q13547+P40337). The assay is described as follows: PROTAC activity at VHL/HDAC1 in human HCT-116 cells assessed as induction of HDAC1 degradation at 1 uM incubated for 24 hrs by Western blot analysis relative to control. Format: cell-based.
Assay [9] deals with T1, Protein deacetylase HDAC6. The assay is described as follows: Inhibition of HDAC6 derived from human HeLa cell nuclear extract using Boc-Lys(Ac)-AMC as substrate by fluorescence based assay. Type of assay: cell-free.
In assay [10] the target is T2, Histone deacetylase 1. As to the kind of experiment: Inhibition of HDAC1 derived from human HeLa cell nuclear extract using Boc-Lys(Ac)-AMC as substrate by fluorescence based assay. Format: cell-free.
Assay [11] can be described thus: Inhibition of His-tagged recombinant human HDAC1 expressed in baculovirus infected insect cells using SIRT1 deacetylase substrate incubated for 30 mins by Luminescence Glo assay.
Assay [12] deals with T2, Histone deacetylase 1. The assay is described as follows: Inhibition of HDAC1 (unknown origin) using fluorimetric substrate incubated for 30 mins by fluorogenic assay.
For assay [13], the target named is T4, von Hippel-Lindau disease tumor suppressor/Histone deacetylase 3. As to the kind of experiment: PROTAC activity at VHL/HDAC3 in human MDA-MB-468 cells assessed as induction of HDAC3 degradation incubated for 14 hrs by Western blot analysis. Type of assay: cell-based.
Target sequence in this assay (O15379 whole entry): as the sequence (O15379 whole entry, looked up) above
Target sequence in this assay (P40337 whole entry): as the sequence (P40337 whole entry, looked up) above
For assay [14] the target is unchanged. The assay is described as follows: PROTAC activity at VHL/HDAC3 (unknown origin) by cell based assay.
Target sequence in this assay (O15379 whole entry): as the sequence (O15379 whole entry, looked up) above
Target sequence in this assay (P40337 whole entry): as the sequence (P40337 whole entry, looked up) above
Assay [15] deals with T3, von Hippel-Lindau disease tumor suppressor/Histone deacetylase 1. As to the kind of experiment: PROTAC activity at VHL/HDAC1 (unknown origin) by cell based assay.
In assay [16] the target is von Hippel-Lindau disease tumor suppressor/Histone deacetylase 2 (Homo sapiens, UniProt P40337+Q92769). As to the kind of experiment: PROTAC activity at VHL/HDAC2 (unknown origin) by cell based assay.
The target in assay [17] is Protein cereblon/Protein deacetylase HDAC6 (Homo sapiens, UniProt Q96SW2+Q9UBN7). As to the kind of experiment: PROTAC activity at CRBN/HDAC6 (unknown origin) by cell based assay.
For assay [18], the target named is Protein cereblon/Histone deacetylase 1 (Homo sapiens, UniProt Q13547+Q96SW2). As to the kind of experiment: PROTAC activity at CRBN/HDAC1 (unknown origin) by cell based assay.
The target in assay [19] is Protein cereblon/Histone deacetylase 2 (Homo sapiens, UniProt Q92769+Q96SW2). As to the kind of experiment: PROTAC activity at CRBN/HDAC2 (unknown origin) by cell based assay.
Assay [20] addresses Protein cereblon/Histone deacetylase 3 (Homo sapiens, UniProt O15379+Q96SW2). As to the kind of experiment: PROTAC activity at CRBN/HDAC3 (unknown origin) by cell based assay.
The species entered for the next assay is Homo sapiens. As to the kind of experiment: Selectivity ratio of IC50 for recombinant human HDAC6 to IC50 for recombinant human HDAC1.
The test system of the next assay is HeLa. As to the kind of experiment: Antiproliferative activity against human HeLa cells assessed as cell growth inhibition incubated for 48 hrs by MTT assay. Format: functional, cell-based. In general terms: Tetrazolium assays rely on reduction of a dye to a coloured formazan, in cell work by metabolically active cells.
The target of assay [21] is T2, Histone deacetylase 1. As to the kind of experiment: Inhibition of recombinant human HDAC1 using fluorogenic acetylated peptide substrate incubated for 30 mins by microplate reader analysis.

T2 sequence (Q13547 whole entry): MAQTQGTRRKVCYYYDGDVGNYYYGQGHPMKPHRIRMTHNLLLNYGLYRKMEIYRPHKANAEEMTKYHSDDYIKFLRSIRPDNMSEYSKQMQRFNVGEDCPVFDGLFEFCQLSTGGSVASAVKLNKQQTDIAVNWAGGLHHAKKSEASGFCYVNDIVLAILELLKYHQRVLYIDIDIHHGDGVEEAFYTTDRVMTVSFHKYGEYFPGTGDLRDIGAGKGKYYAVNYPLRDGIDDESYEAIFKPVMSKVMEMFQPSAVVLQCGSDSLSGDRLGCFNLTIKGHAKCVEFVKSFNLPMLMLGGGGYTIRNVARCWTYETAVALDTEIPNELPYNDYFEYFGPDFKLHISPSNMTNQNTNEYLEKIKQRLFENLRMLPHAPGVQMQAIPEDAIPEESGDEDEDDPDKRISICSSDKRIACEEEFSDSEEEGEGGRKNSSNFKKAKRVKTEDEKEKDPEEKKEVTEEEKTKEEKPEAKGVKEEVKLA
T3 sequence (Q13547 whole entry): as above
T3 sequence (P40337 whole entry): as the sequence (P40337 whole entry, looked up) above
Protein cereblon/Histone deacetylase 2, sequence (Q92769 whole entry): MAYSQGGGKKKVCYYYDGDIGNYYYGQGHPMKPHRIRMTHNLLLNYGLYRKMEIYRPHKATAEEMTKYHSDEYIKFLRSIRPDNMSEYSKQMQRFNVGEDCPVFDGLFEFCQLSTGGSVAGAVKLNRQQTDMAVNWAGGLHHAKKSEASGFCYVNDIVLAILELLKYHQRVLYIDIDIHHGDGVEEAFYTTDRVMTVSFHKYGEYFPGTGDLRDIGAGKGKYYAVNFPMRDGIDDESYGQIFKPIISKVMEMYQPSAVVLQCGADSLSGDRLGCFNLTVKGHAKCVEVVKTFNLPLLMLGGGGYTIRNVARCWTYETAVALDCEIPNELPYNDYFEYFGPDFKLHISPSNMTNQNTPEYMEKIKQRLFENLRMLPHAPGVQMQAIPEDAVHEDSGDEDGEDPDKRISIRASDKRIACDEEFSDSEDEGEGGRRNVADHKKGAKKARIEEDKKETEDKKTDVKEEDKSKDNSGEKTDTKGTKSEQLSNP
Protein cereblon/Histone deacetylase 2, sequence (Q96SW2 whole entry): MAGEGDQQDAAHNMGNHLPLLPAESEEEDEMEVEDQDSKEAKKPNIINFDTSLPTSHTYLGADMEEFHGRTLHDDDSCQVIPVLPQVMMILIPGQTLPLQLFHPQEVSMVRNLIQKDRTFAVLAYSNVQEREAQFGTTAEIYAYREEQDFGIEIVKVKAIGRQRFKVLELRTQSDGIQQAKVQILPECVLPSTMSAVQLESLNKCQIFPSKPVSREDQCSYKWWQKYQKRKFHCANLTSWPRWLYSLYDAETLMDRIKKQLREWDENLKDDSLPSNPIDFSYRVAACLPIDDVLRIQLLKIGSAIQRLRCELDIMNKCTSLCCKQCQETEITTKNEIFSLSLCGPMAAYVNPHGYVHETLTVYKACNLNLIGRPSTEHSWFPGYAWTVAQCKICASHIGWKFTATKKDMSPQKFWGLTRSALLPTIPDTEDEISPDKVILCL
von Hippel-Lindau disease tumor suppressor/Histone deacetylase 2, sequence (Q92769 whole entry): as the sequence (Q92769 whole entry) above
von Hippel-Lindau disease tumor suppressor/Histone deacetylase 2, sequence (P40337 whole entry): as the sequence (P40337 whole entry, looked up) above
Histone deacetylase 2, sequence (Q92769 whole entry): as the sequence (Q92769 whole entry) above
Protein cereblon/Protein deacetylase HDAC6, sequence (Q96SW2 whole entry, one chain of several): as the sequence (Q96SW2 whole entry) above
Protein cereblon/Histone deacetylase 3, sequence (O15379 whole entry): as the sequence (O15379 whole entry, looked up) above
Protein cereblon/Histone deacetylase 3, sequence (Q96SW2 whole entry): as the sequence (Q96SW2 whole entry) above
Protein cereblon/Histone deacetylase 1, sequence (Q13547 whole entry): as the sequence (Q13547 whole entry) above
Protein cereblon/Histone deacetylase 1, sequence (Q96SW2 whole entry): as the sequence (Q96SW2 whole entry) above
von Hippel-Lindau disease tumor suppressor/Histone deacetylase 2 (Homo sapiens), sequence (P40337 whole entry, looked up): as the sequence (P40337 whole entry, looked up) above
von Hippel-Lindau disease tumor suppressor/Histone deacetylase 2 (Homo sapiens), sequence (Q92769 whole entry, looked up): as the sequence (Q92769 whole entry) above
von Hippel-Lindau disease tumor suppressor/Histone deacetylase 1 (Homo sapiens), sequence (P40337 whole entry, looked up): as the sequence (P40337 whole entry, looked up) above
von Hippel-Lindau disease tumor suppressor/Histone deacetylase 1 (Homo sapiens), sequence (Q13547 whole entry, looked up): as the sequence (Q13547 whole entry) above

On to `O=C(CCCCCCC(=O)Nc1nc2c(s1)C[C@@H](NC(=O)c1cccc3ccccc13)CC2)NO`, for which the IC50 (as a rule, the midpoint of a concentration-inhibition curve) stood at 4.6 nM in assay [1] and 1.4 nM at Histone deacetylase 1 [2].

Turning to `Nc1ccccc1NC(=O)c1ccc2ncccc2c1`, the IC50 in assay [3] is 560 nM; at Histone deacetylase 2, 26000 nM; on Histone deacetylase 1 [4] it was 18700 nM.

In the case of `Cc1ncsc1-c1ccc(CNC(=O)[C@@H]2C[C@@H](O)CN2C(=O)[C@@H](NC(=O)CCCCCCCCCCC(=O)Nc2ccc(C(=O)Nc3ccccc3N)cc2)C(C)(C)C)cc1`, the IC50 in assay [5] amounted to 16800 nM. Moreover, the Activity in assay [6], in [7] and in assay [8] was 50% throughout.

Consider `CC(C)n1cnc2c(-c3cccc(OCCCC(=O)NO)c3)nc(N3CCOCC3)nc21`, for which the IC50 stood at 24 nM in assay [9] and 82 nM at Histone deacetylase 1 [10].

For `CCCCNNC(=O)c1ccc(-c2ccccc2)cc1`, the IC50 in assay [11] is 90 nM.

Regarding `Cc1ccc(C(=O)Nc2nc(C(=O)NO)co2)cc1`, it took 10 nM to reach half-maximal inhibition against Histone deacetylase 1 [12] (IC50).

Turning to `CCCNNC(=O)c1ccc(-c2ccc(NC(=O)CCCCCCC(=O)N[C@H](C(=O)N3C[C@H](O)C[C@H]3C(=O)N[C@@H](C)c3ccc(-c4scnc4C)cc3)C(C)(C)C)cc2)cc1`, in [13], the EC50 (as a rule, the concentration at which the effect is half-maximal) is 42 nM. The IC50 in [14] amounted to 350 nM; in assay [15] it was 650 nM; in assay [16], 1550 nM.

`O=C(CCCCCCNC(=O)c1ccc(NC(=O)COCCOCCNC(=O)COc2cccc3c2C(=O)N(C2CCC(=O)NC2=O)C3=O)cc1)NO` (centres undefined): the IC50 in assay [17] came to 27 nM; in assay [18], 174 nM; in assay [19], 248 nM; in assay [20] it was 27 nM.

Turning to `COc1ccc2cc(C(=O)Oc3cccc(/C=C/C(=O)NO)c3)c(=O)oc2c1`, the Ratio IC50 in the assay listed under Homo sapiens is 26. The IC50 was 230 nM in the assay on HeLa and 190 nM at Histone deacetylase 1 [21].
